Assay results: ChEMBL document CHEMBL1135963, “Synthesis and vasorelaxant activity of new coumarin and furocoumarin derivatives” (Bioorg Med Chem Lett, 2002)

Legend:
Rattus norvegicus [1] = species: Rattus norvegicus; test: Compound was tested for the vasorelaxation in rat aorta rings pre-contracted with noradrenaline (NA) 10 uM; assay type: functional, organism-based
Rattus norvegicus [2] = species: Rattus norvegicus; test: Antagonist PD'2 which is the negative logarithm of the molar concentration of antagonist required to cause 50% depression of the maximal response of the agonist was determined; assay type: functional
Rattus norvegicus [3] = species: Rattus norvegicus; test: Compound was tested for the vasorelaxation in rat aorta rings pre-contracted with KCl 60 mM; assay type: functional, organism-based
Rattus norvegicus [4] = species: Rattus norvegicus; test: Effect on concentration dependent contractions in rat aortic rings expressed as pD2 value; assay type: functional, Aorta

SMILES	IC50 (Rattus norvegicus [1]) [µM]	IC50 (Rattus norvegicus [3]) [µM]	PD'2 (Rattus norvegicus [2])	pD2 (Rattus norvegicus [4])
Cc1coc2cc3oc(=O)cc(CO)c3cc12	68.4	54	4.73	
NC[C@H](O)c1ccc(O)c(O)c1 [NOREPINEPHRINE]				6.07
COc1c2occc2c(OC)c2c(=O)cc(C)oc12 [KHELLIN]	309	316	4.46	

The next lines start with results.

IC50 (Rattus norvegicus [1]) [µM]	IC50 (Rattus norvegicus [3]) [µM]	SMILES	PD'2 (Rattus norvegicus [2])	pD2 (Rattus norvegicus [4])
933	1010	COc1c(O)ccc2c(CO)cc(=O)oc12	2.57	
42	42.6	COc1c2occ(C)c2cc2c(CO)cc(=O)oc12		
> 1000	> 1000	CC(=O)COc1ccc2c(CO)cc(=O)oc2c1OCC(C)=O		
52.6	93.3	CC(=O)COc1c2occ(C)c2cc2c(CO)cc(=O)oc12		
> 1000	> 1000	CCOC(=O)COc1ccc2c(C)c(CCN(CC)CC)c(=O)oc2c1 [CHROMONAR]		
